Results from PubChem BioAssay (NCI).
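All cell lines were grown in 96-well plates and treated with compound for 48 hours. Abbreviation: GI50, concentration required for 50% inhibition of growth. TGI denotes the concentration required for complete inhibition of growth.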

Columns and labels:
Test in all cases: NCI-60 cell line screen, 48 h
[1] = test system: 786-0 renal
[2] = test system: A498 renal
[3] = test system: A549 NSCLC
[4] = test system: ACHN renal
[5] = test system: BT-549 breast
[6] = test system: CAKI-1 renal
[7] = test system: CCRF-CEM leukemia
[8] = test system: COLO 205 colon
[9] = test system: DU-145 prostate
[10] = test system: EKVX NSCLC
[11] = test system: HCC-2998 colon
[12] = test system: HCT-116 colon
[13] = test system: HCT-15 colon
[14] = test system: HL-60(TB) leukemia
[15] = test system: HOP-62 NSCLC
[16] = test system: HOP-92 NSCLC
[17] = test system: HS 578T breast
[18] = test system: HT29 colon
[19] = test system: IGROV1 ovarian
[20] = test system: K-562 leukemia
[21] = test system: KM12 colon
[22] = test system: LOX IMVI melanoma
[23] = test system: M14 melanoma
[24] = test system: MALME-3M melanoma
[25] = test system: MCF7 breast
[26] = test system: MDA-MB-231 breast
[27] = test system: MDA-MB-435
[28] = test system: MOLT-4 leukemia
[29] = test system: NCI-H226 lung
[30] = test system: NCI-H23 lung
[31] = test system: NCI-H460 lung
[32] = test system: NCI-H522 lung
[33] = test system: NCI/ADR-RES ovarian
[34] = test system: OVCAR-3 ovarian
[35] = test system: OVCAR-4 ovarian
[36] = test system: OVCAR-5 ovarian
[37] = test system: OVCAR-8 ovarian
[38] = test system: PC-3 prostate
[39] = test system: RPMI-8226 leukemia
[40] = test system: RXF 393 renal
[41] = test system: SF-268 CNS
[42] = test system: SF-295 CNS
[43] = test system: SF-539 CNS
[44] = test system: SK-MEL-2 melanoma
[45] = test system: SK-MEL-28 melanoma
[46] = test system: SK-MEL-5 melanoma
[47] = test system: SK-OV-3 ovarian
[48] = test system: SN12C renal
[49] = test system: SNB-19 CNS
[50] = test system: SNB-75 CNS
[51] = test system: SR leukemia
[52] = test system: SW-620 colon
[53] = test system: T-47D breast
[54] = test system: TK-10 renal
[55] = test system: U251 CNS
[56] = test system: UACC-257 melanoma
[57] = test system: UACC-62 melanoma
[58] = test system: UO-31 renal

**Q.** With FC(F)(c1ccc2ncccc2c1)c1nnc2ccc(-c3ccncc3)nn12 as the compound, how does the GI50 [1] read?
**A.** 69.3 µM

**Q.** And the TGI [1]?
**A.** > 100 µM

**Q.** And the GI50 [2]?
**A.** 19.3 µM

**Q.** What about the TGI [2] of the same compound?
**A.** > 100 µM

**Q.** And the GI50 [3]?
**A.** 76.8 µM

**Q.** What about the TGI [3] of the same compound?
**A.** > 100 µM

**Q.** And the GI50 [4]?
**A.** 50.2 µM

**Q.** What about the TGI [4] of the same compound?
**A.** > 100 µM

**Q.** What about the GI50 [5] of the same compound?
**A.** 53.7 µM

**Q.** What about the TGI [5] of the same compound?
**A.** > 100 µM

**Q.** What about the GI50 [6] of the same compound?
**A.** 25.1 µM

**Q.** What about the TGI [6] of the same compound?
**A.** > 100 µM

**Q.** And the GI50 [7]?
**A.** > 100 µM

**Q.** And the TGI [7]?
**A.** > 100 µM

**Q.** What about the GI50 [8] of the same compound?
**A.** 91.1 µM

**Q.** And the TGI [8]?
**A.** > 100 µM

**Q.** And the GI50 [9]?
**A.** > 100 µM

**Q.** What about the TGI [9] of the same compound?
**A.** > 100 µM

**Q.** And the GI50 [10]?
**A.** 21.4 µM

**Q.** And the TGI [10]?
**A.** > 100 µM

**Q.** What about the GI50 [11] of the same compound?
**A.** > 100 µM

**Q.** And the TGI [11]?
**A.** > 100 µM

**Q.** What about the GI50 [12] of the same compound?
**A.** 95.8 µM

**Q.** What about the TGI [12] of the same compound?
**A.** > 100 µM

**Q.** What about the GI50 [13] of the same compound?
**A.** 60 µM

**Q.** What about the TGI [13] of the same compound?
**A.** > 100 µM

**Q.** And the GI50 [14]?
**A.** > 100 µM

**Q.** What about the TGI [14] of the same compound?
**A.** > 100 µM

**Q.** What about the GI50 [15] of the same compound?
**A.** 62.7 µM

**Q.** And the TGI [15]?
**A.** > 100 µM

**Q.** What about the GI50 [16] of the same compound?
**A.** 18.3 µM

**Q.** And the TGI [16]?
**A.** > 100 µM

**Q.** And the GI50 [17]?
**A.** 22.3 µM

**Q.** And the TGI [17]?
**A.** > 100 µM

**Q.** What about the GI50 [18] of the same compound?
**A.** > 100 µM

**Q.** What about the TGI [18] of the same compound?
**A.** > 100 µM

**Q.** What about the GI50 [19] of the same compound?
**A.** 49.4 µM

**Q.** And the TGI [19]?
**A.** > 100 µM

**Q.** What about the GI50 [20] of the same compound?
**A.** 52.7 µM

**Q.** What about the TGI [20] of the same compound?
**A.** > 100 µM

**Q.** And the GI50 [21]?
**A.** 69.7 µM

**Q.** And the TGI [21]?
**A.** > 100 µM

**Q.** And the GI50 [22]?
**A.** 49.6 µM

**Q.** What about the TGI [22] of the same compound?
**A.** > 100 µM

**Q.** And the GI50 [23]?
**A.** > 100 µM

**Q.** And the TGI [23]?
**A.** > 100 µM

**Q.** What about the GI50 [24] of the same compound?
**A.** > 100 µM

**Q.** And the TGI [24]?
**A.** > 100 µM

**Q.** What about the GI50 [25] of the same compound?
**A.** 95.3 µM

**Q.** What about the TGI [25] of the same compound?
**A.** > 100 µM

**Q.** What about the GI50 [26] of the same compound?
**A.** 31 µM

**Q.** And the TGI [26]?
**A.** > 100 µM

**Q.** And the GI50 [27]?
**A.** > 100 µM

**Q.** And the TGI [27]?
**A.** > 100 µM

**Q.** And the GI50 [28]?
**A.** 38.4 µM

**Q.** What about the TGI [28] of the same compound?
**A.** > 100 µM

**Q.** And the GI50 [29]?
**A.** 45.9 µM

**Q.** What about the TGI [29] of the same compound?
**A.** > 100 µM

**Q.** What about the GI50 [30] of the same compound?
**A.** > 100 µM

**Q.** What about the TGI [30] of the same compound?
**A.** > 100 µM

**Q.** What about the GI50 [31] of the same compound?
**A.** > 100 µM

**Q.** And the TGI [31]?
**A.** > 100 µM

**Q.** And the GI50 [32]?
**A.** > 100 µM

**Q.** What about the TGI [32] of the same compound?
**A.** > 100 µM

**Q.** What about the GI50 [33] of the same compound?
**A.** 64.3 µM

**Q.** What about the TGI [33] of the same compound?
**A.** > 100 µM

**Q.** What about the GI50 [34] of the same compound?
**A.** > 100 µM

**Q.** What about the TGI [34] of the same compound?
**A.** > 100 µM

**Q.** And the GI50 [35]?
**A.** > 100 µM

**Q.** And the TGI [35]?
**A.** > 100 µM

**Q.** What about the GI50 [36] of the same compound?
**A.** > 100 µM

**Q.** What about the TGI [36] of the same compound?
**A.** > 100 µM

**Q.** What about the GI50 [37] of the same compound?
**A.** 84.1 µM

**Q.** And the TGI [37]?
**A.** > 100 µM

**Q.** What about the GI50 [38] of the same compound?
**A.** 74.6 µM

**Q.** And the TGI [38]?
**A.** > 100 µM

**Q.** What about the GI50 [39] of the same compound?
**A.** 53.3 µM

**Q.** What about the TGI [39] of the same compound?
**A.** > 100 µM

**Q.** What about the GI50 [40] of the same compound?
**A.** 16.4 µM

**Q.** And the TGI [40]?
**A.** 83.8 µM

**Q.** What about the GI50 [41] of the same compound?
**A.** 66.5 µM

**Q.** And the TGI [41]?
**A.** > 100 µM

**Q.** What about the GI50 [42] of the same compound?
**A.** 2.21 µM

**Q.** And the TGI [42]?
**A.** > 100 µM

**Q.** And the GI50 [43]?
**A.** 46.4 µM

**Q.** And the TGI [43]?
**A.** > 100 µM

**Q.** What about the GI50 [44] of the same compound?
**A.** > 100 µM

**Q.** What about the TGI [44] of the same compound?
**A.** > 100 µM

**Q.** What about the GI50 [45] of the same compound?
**A.** > 100 µM

**Q.** And the TGI [45]?
**A.** > 100 µM

**Q.** And the GI50 [46]?
**A.** 48.5 µM

**Q.** What about the TGI [46] of the same compound?
**A.** > 100 µM

**Q.** What about the GI50 [47] of the same compound?
**A.** > 100 µM

**Q.** What about the TGI [47] of the same compound?
**A.** > 100 µM

**Q.** What about the GI50 [48] of the same compound?
**A.** 37.1 µM

**Q.** And the TGI [48]?
**A.** > 100 µM

**Q.** What about the GI50 [49] of the same compound?
**A.** > 100 µM

**Q.** What about the TGI [49] of the same compound?
**A.** > 100 µM

**Q.** What about the GI50 [50] of the same compound?
**A.** 19 µM

**Q.** And the TGI [50]?
**A.** > 100 µM

**Q.** What about the GI50 [51] of the same compound?
**A.** > 100 µM

**Q.** What about the TGI [51] of the same compound?
**A.** > 100 µM

**Q.** What about the GI50 [52] of the same compound?
**A.** > 100 µM

**Q.** What about the TGI [52] of the same compound?
**A.** > 100 µM

**Q.** What about the GI50 [53] of the same compound?
**A.** 61.9 µM

**Q.** What about the TGI [53] of the same compound?
**A.** > 100 µM

**Q.** What about the GI50 [54] of the same compound?
**A.** 73.1 µM

**Q.** What about the TGI [54] of the same compound?
**A.** > 100 µM

**Q.** What about the GI50 [55] of the same compound?
**A.** 95.2 µM

**Q.** What about the TGI [55] of the same compound?
**A.** > 100 µM

**Q.** What about the GI50 [56] of the same compound?
**A.** > 100 µM

**Q.** And the TGI [56]?
**A.** > 100 µM

**Q.** What about the GI50 [57] of the same compound?
**A.** > 100 µM

**Q.** And the TGI [57]?
**A.** > 100 µM

**Q.** What about the GI50 [58] of the same compound?
**A.** 19.2 µM

**Q.** And the TGI [58]?
**A.** > 100 µM
